# Laboratory results published in US20250179078A1, “INHIBITORS OF NLRP3” (PTC THERAPEUTICS, INC., priority 2022, published 2025).
# Molecular target: T1, NLRP3 (Homo sapiens, UniProt Q96P20)
# T1 construct: host or cells: THP-1 cells differentiated with PMA
# Test: IL-1β Secretion Assay (NLRP3-dependent IL1β secretion in THP1 cells)
# Assay type: cell-based
# Details: PMA-differentiated THP-1 cells; compounds incubated 20 h; 2.5 μM Nigericin 3 h; HTRF IL-1β readout; read-out: IC50 IL-1β Inhibition
# Method in brief: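 IL-1β in conditioned media, measured by HTRF after 3 h 2.5 μM nigericin stimulation, gave % inhibition fitted logistically for IC50. Before that, PMA-differentiated (100 ng/mL, 24 h) THP-1 cells were preincubated 20 h with 7 compound concentrations (3-fold serial, DMSO 1:200).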
# T1 sequence (Q96P20 whole entry): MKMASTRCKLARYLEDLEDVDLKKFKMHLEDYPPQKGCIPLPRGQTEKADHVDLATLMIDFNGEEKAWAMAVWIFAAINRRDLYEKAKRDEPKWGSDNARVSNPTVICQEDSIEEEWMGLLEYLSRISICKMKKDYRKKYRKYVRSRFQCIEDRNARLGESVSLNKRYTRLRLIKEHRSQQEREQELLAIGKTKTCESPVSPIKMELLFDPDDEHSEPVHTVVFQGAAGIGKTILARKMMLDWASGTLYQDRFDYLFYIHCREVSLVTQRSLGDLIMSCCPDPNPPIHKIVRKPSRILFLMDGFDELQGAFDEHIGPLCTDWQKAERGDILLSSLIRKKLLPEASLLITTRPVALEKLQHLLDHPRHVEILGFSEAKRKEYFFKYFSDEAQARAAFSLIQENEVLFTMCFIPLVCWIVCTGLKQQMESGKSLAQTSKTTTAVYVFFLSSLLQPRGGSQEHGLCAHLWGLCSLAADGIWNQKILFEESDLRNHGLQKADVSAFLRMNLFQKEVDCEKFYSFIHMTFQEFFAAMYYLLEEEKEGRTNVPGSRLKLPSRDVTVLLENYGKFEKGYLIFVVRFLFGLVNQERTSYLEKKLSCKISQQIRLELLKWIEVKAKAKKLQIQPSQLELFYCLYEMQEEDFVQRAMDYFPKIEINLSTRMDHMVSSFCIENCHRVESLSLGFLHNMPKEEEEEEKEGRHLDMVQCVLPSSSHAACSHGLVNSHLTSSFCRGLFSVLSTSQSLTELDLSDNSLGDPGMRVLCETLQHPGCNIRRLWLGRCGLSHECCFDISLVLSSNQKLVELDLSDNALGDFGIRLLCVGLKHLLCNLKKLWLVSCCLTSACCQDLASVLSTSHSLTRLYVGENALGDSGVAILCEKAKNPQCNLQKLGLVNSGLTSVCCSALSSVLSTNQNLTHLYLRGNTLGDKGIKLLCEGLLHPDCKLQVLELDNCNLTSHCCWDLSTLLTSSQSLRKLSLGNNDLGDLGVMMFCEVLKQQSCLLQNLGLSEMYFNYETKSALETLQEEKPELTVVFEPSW
row,IC50 [nM],SMILES
1,< 1,"CC(CO)N1CCC[C@@H](Nc2nnc(-c3ccc(C(F)(F)F)cc3OC(F)F)c3cccn23)C1 (stereo partly drawn) [Compound 22, 2-[(3R)-3-({1-[2-(difluoromethoxy)-4-(trifluoromethyl)phenyl]pyrrolo[1,2-d][1,2,4]triazin-4-yl}amino)piperidin-1-yl]propan-1-ol]"
2,1 to 10,"O[C@@H]1CCCC[C@H]1Nc1nnc(-c2ccc(C(F)(F)F)cc2OC(F)F)c2cccn12 [Compound 110, (1R,2R)-2-({1-[2-(difluoromethoxy)-4-(trifluoromethyl)phenyl]pyrrolo[1,2-d][1,2,4]triazin-4-yl}amino)cyclohexan-1-ol]"
3,1 to 10,OCCN1CCC[C@@H](Nc2nnc(-c3ccc(C(F)(F)F)cc3OC(F)F)c3c(F)ccn23)C1 [Compound 15]
4,1 to 10,"COc1ccc(-c2nnc(NC3CCNC3=O)n3cccc23)c(CC(F)(F)F)c1 (stereo not shown) [Compound 139, 3-({1-[4-methoxy-2-(2,2,2-trifluoroethyl)phenyl]pyrrolo[1,2-d][1,2,4]triazin-4-yl}amino)pyrrolidin-2-one]"
5,1 to 10,"O[C@H]1COCC[C@@H]1Nc1nnc(-c2ccc(C(F)(F)F)cc2CC(F)(F)F)c2cccn12 [Compound 113, (3R,4S)-4-({1-[2-(2,2,2-trifluoroethyl)-4-(trifluoromethyl)phenyl]pyrrolo[1,2-d][1,2,4]triazin-4-yl}amino)oxan-3-ol]"
6,< 1,"CCN1C[C@H](F)C[C@@H](Nc2nnc(-c3ccc(Br)cc3OC(F)F)c3cncn23)C1 [Compound 196, 1-[4-bromo-2-(difluoromethoxy)phenyl]-N-[(3R,5R)-1-ethyl-5-fluoropiperidin-3-yl]imidazo[1,5-d][1,2,4]triazin-4-amine]"
7,10 to 100,"Cc1ccc(-c2nnc(N[C@H]3CCCC[C@@H]3O)n3cccc23)c(OC(F)F)c1 [Compound 80, (1S,2S)-2-({1-[2-(difluoromethoxy)-4-methylphenyl]pyrrolo[1,2-d][1,2,4]triazin-4-yl}amino)cyclohexan-1-ol]"
8,< 1,"CCN1CCC[C@@H](Nc2nnc(-c3ccc(Cl)cc3OC(F)F)c3cncn23)C1 [Compound 191, 1-[4-chloro-2-(difluoromethoxy)phenyl]-N-[(3R)-1-ethylpiperidin-3-yl]imidazo[1,5-d][1,2,4]triazin-4-amine]"
9,< 1,"CCN1CCC[C@@H](Nc2nnc(-c3ccc(OC)cc3C(F)(F)F)c3cc(C)nn23)C1 [Compound 373, N-[(3R)-1-ethylpiperidin-3-yl]-4-[4-methoxy-2-(trifluoromethyl)phenyl]-2-methylpyrazolo[1,5-d][1,2,4]triazin-7-amine]"
10,< 1,"O[C@H]1CCC[C@@H](Nc2nnc(-c3ccc(C(F)(F)F)cc3OC(F)(F)F)c3cncn23)C1 [Compound 240, (1S,3R)-3-({1-[2-(trifluoromethoxy)-4-(trifluoromethyl)phenyl]imidazo[1,5-d][1,2,4]triazin-4-yl}amino)cyclohexan-1-ol]"
11,< 1,"CCN1CCC[C@@H](Nc2nnc(-c3ccc(OC)cc3OC(F)(F)F)c3c(F)ccn23)C1 [Compound 50, N-[(3R)-1-ethylpiperidin-3-yl]-8-fluoro-1-[4-methoxy-2-(trifluoromethoxy)phenyl]pyrrolo[1,2-d][1,2,4]triazin-4-amine]"
12,1 to 10,"Cc1cc2c(-c3ccc(C4CC4)cc3C(F)F)nnc(N[C@@H]3CCCN(C)C3)n2c1 [Compound 14, 1-[4-cyclopropyl-2-(difluoromethyl)phenyl]-7-methyl-N-[(3R)-1-methylpiperidin-3-yl]pyrrolo[1,2-d][1,2,4]triazin-4-amine]"
13,10 to 100,"CC1(CO)CC(Nc2nnc(-c3ccc(C(F)(F)F)cc3OC(F)(F)F)c3cncn23)C1 (stereo not shown) [Compound 335, [1-methyl-3-({1-[2-(trifluoromethoxy)-4-(trifluoromethyl)phenyl]imidazo[1,5-d][1,2,4]triazin-4-yl}amino)cyclobutyl]methanol]"
14,1 to 10,"CN1CCC[C@H](CNc2nnc(-c3ccc(C(F)(F)F)cc3CC(F)(F)F)c3cccn23)C1 [Compound 147, N-{[(3R)-1-methylpiperidin-3-yl]methyl}-1-[2-(2,2,2-trifluoroethyl)-4-(trifluoromethyl)phenyl]pyrrolo[1,2-d][1,2,4]triazin-4-amine]"
15,10 to 100,"COc1ccc(-c2nnc(NC3CCNC3=O)n3cccc23)c(OC(F)F)c1 (stereo not shown) [Compound 174, 3-({1-[2-(difluoromethoxy)-4-methoxyphenyl]pyrrolo[1,2-d][1,2,4]triazin-4-yl}amino)pyrrolidin-2-one]"
16,1 to 10,"O[C@H]1CCCC[C@@H]1Nc1nnc(-c2ccc(C(F)(F)F)cc2CC(F)(F)F)c2cccn12 [Compound 111, (1S,2S)-2-({1-[2-(2,2,2-trifluoroethyl)-4-(trifluoromethyl)phenyl]pyrrolo[1,2-d][1,2,4]triazin-4-yl}amino)cyclohexan-1-ol]"
17,10 to 100,"COc1ccc(-c2nnc(NCc3nccn3C)n3cccc23)c(OC(F)(F)F)c1 [Compound 69, 1-[4-methoxy-2-(trifluoromethoxy)phenyl]-N-[(1-methyl-1H-imidazol-2-yl)methyl]pyrrolo[1,2-d][1,2,4]triazin-4-amine]"
18,< 1,"CN1CCC[C@@H](Nc2nnc(-c3ccc(C4CC4)cc3OC(F)F)c3cncn23)C1 [Compound 203, 1-[4-cyclopropyl-2-(difluoromethoxy)phenyl]-N-[(3R)-1-methylpiperidin-3-yl]imidazo[1,5-d][1,2,4]triazin-4-amine]"
19,≥ 300,"COc1ccc(-c2nnc(N[C@H]3CCCC[C@]3(C)O)n3cncc23)c(OC(F)(F)F)c1 (single isomer, unassigned) [Compound 310]"
20,1 to 10,"CCN1CCC[C@@H](Nc2nnc(-c3ccc(C(F)(F)F)cc3C(F)(F)F)c3c(F)ccn23)C1 [Compound 29, 1-[2,4-bis(trifluoromethyl)phenyl]-N-[(3R)-1-ethylpiperidin-3-yl]-8-fluoropyrrolo[1,2-d][1,2,4]triazin-4-amine]"
21,1 to 10,"CN1CCCC(Nc2nnc(-c3ccc(C(F)(F)F)cc3CC(F)(F)F)c3cncn23)C1=O (stereo not shown) [Compound 329, 1-methyl-3-({1-[2-(2,2,2-trifluoroethyl)-4-(trifluoromethyl)phenyl]imidazo[1,5-d][1,2,4]triazin-4-yl}amino)piperidin-2-one]"
22,10 to 100,"Cc1ccc(-c2nnc(N[C@H]3C[C@@](C)(O)C3)n3cncc23)c(OC(F)F)c1 [Compound 344, (1s,3s)-3-({1-[2-(difluoromethoxy)-4-methylphenyl]imidazo[1,5-d][1,2,4]triazin-4-yl}amino)-1-methylcyclobutan-1-ol]"
23,10 to 100,"Cc1cc2c(-c3ccc(C(F)(F)F)cc3OC(F)F)nnc(N[C@@H]3CCCC[C@H]3O)n2n1 [Compound 381, (1R,2R)-2-({4-[2-(difluoromethoxy)-4-(trifluoromethyl)phenyl]-2-methylpyrazolo[1,5-d][1,2,4]triazin-7-yl}amino)cyclohexan-1-ol]"
24,≥ 300,"COc1ccc(-c2nnc(N[C@@H]3CCCC[C@@]3(C)O)n3cccc23)c(OC(F)(F)F)c1 (single isomer, unassigned) [Compound 181]"
25,1 to 10,"CCc1ccc(-c2nnc(N[C@@H]3CCCN(C)C3)n3cccc23)c(OC(F)(F)F)c1 [Compound 42, 1-[4-ethyl-2-(trifluoromethoxy)phenyl]-N-[(3R)-1-methylpiperidin-3-yl]pyrrolo[1,2-d][1,2,4]triazin-4-amine]"
